In assay [1] the test system is cell surface glycans of CHO cells. The experiment in a line: Lectin blots of cell surface glycans of CHO cells. The format is cell-based, Chinese hamster. To be noted: 50 μM, 24 hours. The method, then:
Lectin blots were performed with the CHO-K1 cell lysate as prepared above. […] The biotin label on the lectins was visualized with incubation with Streptavidin-HRP (Pierce) followed by ECL detection and imaging.

The next assay concerns LNCaP cells. The experiment in a line: LNCaP cell viability and c-Myc stability. The format is cell-based, human. To be noted: 50 μM. Here is the method: The sample was separated by SDS-PAGE (Bio-Rad 4-15%, Cat: 345-0028), transferred to a nitrocellulose membrane (iBlot, Invitrogen) and probed with the indicated antibody. Tyipcally, membranes were blocked with 4% BSA in 1× TBS+0.04% tween-20 for 1 hour before incubating with antibody (typically diluted 1:1000 in 4% BSA inlx TBS+0.04% tween-20) overnight at 4° C. Membranes were then washed three times with 1× TBS+0.04% tween-20 and incubated with secondary antibody (typically diluted 1:5000 in 4% BSA in 1× TBS+0.04% tween-20) for 1 hour at room temperature. Lastly, membranes were washed 3× with 1× TBS+0.04% tween-20 and imaged with ECL. D283-Med cells were treated as above but grown in F12-K media supplemented with 10% FBS and antibiotics. HEK, HeLa and LNCaP cells were treated as above but grown in RPMI media supplemented with 10% FBS and antibiotics.
Cell viability, cytotoxicity and apoptosis signaling assays were performed in a 96-well plate using ApoTox-Glo reagent (Promega) according to the manufacturer's instructions.

The target of a further assay is T1, ncOGT (Homo sapiens, UniProt O15294).
T1 construct: full length human OGT (ncOGT); made in house
T1 sequence (O15294 1-1046): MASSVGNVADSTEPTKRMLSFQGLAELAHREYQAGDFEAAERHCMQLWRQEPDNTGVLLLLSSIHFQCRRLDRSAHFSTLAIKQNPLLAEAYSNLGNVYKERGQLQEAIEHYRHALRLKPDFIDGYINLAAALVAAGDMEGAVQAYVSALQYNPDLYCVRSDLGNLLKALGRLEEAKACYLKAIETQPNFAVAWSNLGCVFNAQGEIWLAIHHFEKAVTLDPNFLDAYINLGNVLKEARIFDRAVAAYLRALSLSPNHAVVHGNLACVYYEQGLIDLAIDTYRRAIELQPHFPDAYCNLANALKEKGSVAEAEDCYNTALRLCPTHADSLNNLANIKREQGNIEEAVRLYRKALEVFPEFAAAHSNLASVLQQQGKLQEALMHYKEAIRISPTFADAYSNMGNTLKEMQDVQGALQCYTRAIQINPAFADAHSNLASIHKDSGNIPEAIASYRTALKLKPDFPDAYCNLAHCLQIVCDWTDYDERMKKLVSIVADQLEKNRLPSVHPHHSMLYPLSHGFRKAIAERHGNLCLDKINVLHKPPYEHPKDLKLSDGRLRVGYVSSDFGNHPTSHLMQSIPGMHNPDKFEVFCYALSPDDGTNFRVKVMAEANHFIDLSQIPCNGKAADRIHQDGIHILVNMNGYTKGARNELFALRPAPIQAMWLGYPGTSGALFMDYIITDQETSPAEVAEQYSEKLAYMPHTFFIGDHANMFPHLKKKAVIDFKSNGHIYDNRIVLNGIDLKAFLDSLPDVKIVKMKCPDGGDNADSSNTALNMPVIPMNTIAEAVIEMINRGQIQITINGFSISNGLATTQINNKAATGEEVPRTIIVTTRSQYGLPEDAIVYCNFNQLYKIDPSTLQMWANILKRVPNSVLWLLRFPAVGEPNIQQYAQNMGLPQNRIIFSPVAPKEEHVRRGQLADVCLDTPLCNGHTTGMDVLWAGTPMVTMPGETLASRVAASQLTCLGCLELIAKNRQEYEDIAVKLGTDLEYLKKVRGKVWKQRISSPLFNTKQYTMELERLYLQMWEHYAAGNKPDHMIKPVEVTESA
The assay is described as follows: Radiometric capture assay with Nup62 acceptor and UDP-14C-GlcNAc. The format is biochemical. The method, then:
Radiometric capture assay: Nucleoporin 62 (Nup62) was used as a model substrate. IC50 values of the both inhibitors were determined at range of 0 to 100 μM (eight point, duplicate). OGT antagonists were tested in a reaction mixture containing 18 μM Nup62, 6 μM UDP-^14C-GlcNAc, 100 nM ncOGT, and lx phosphate-buffered saline (1× PBS) (137 mM NaCl, 2.7 mM KCl, 10 mM Na2HPO4, and 1.8 mM KH2PO4, pH 7.4). The Nup62 glycosylation reactions were run for 15 min at 37° C. Reaction mixtures were subsequently quenched by spottinged on Whatman® Protran® nitrocellulose membrane, washed with 1× PBS three times for 15 minutes each. The membranes were air dried and then counted by liquid scintillation counting. The data were analyzed by Microsoft® Excel and Prism 6 (Graphpad®). Robust non-linear variable slope regressions were generated to determine the IC50 and Hill slope values.
In order to evaluate the mode of inhibition of OSMI-1 and UDP-5S-GlcNAc, a series of experiments, as outlined above, were performed with Nup62 as glycosylation substrate. The inhibition test of OSMI-1 was performed by varying the UDP-^14C-GlcNAc concentration from 0 to 0.25 mM while holding concentration of Nup62 constant at 10 μM with four different concentrations of OSMI-1 (0 to 2 μM) in 1× PBS with 100 nM ncOGT and with fixed and saturating concentrations of GST-Nup62 acceptor. The inhibition test of UDP-5S-GlcNAc was performed by varying the UDP-^14C-GlcNAc concentration from 0 to 1 mM while holding concentration of Nup62 constant at 10 μM with five different concentrations of UDP-5S-GlcNAc (0, 1, 5, 10, and 15 μM) in 1× PBS with 100 nM ncOGT. Each reaction was spotted on Whatman® grade P81 ion exchange chromatography paper circles, washed with 1× PBS three times for 15 minutes each. The membranes were air dried and then counted by liquid scintillation counting. Each assay was duplicated in parallel. The data were analyzed by Microsoft® Excel and Prism 6 (Graphpad®). The Michaelis-Menten plots and Ki of both inhibitors calculated under non-linear regression with competitive inhibition mode are shown in FIG. 5.

Turning to `COc1ccccc1[C@@H](NS(=O)(=O)c1ccc2[nH]c(=O)ccc2c1)C(=O)N(Cc1ccco1)Cc1cccs1` [OSMI-1, (R)—N-(furan-2-ylmethyl)-2-(2-methoxyphenyl)-2-(2-oxo-1,2-dihydroquinoline-6-sulfonamido)-N-(thiophen-2-ylmethyl)acetamide], the “Changes in bands detected by ConA, PHA-L, ECL, GSL-I, PNA or DBA” value in assay [1] is “minimal changes”. Moreover, in the assay on LNCaP cells (48 hrs), the LNCaP cell viability result is “decrease in cell viability”. Besides, the c-Myc stability result in the assay on LNCaP cells (LNCaP cells, 6 and 48 hours) is “decreases c-Myc stability”. On ncOGT (6 μM UDP-GlcNAc, 18 μM GST-Nup62), this compound came in with an IC50 of 3 µM. In addition, the Ki on ncOGT (non-linear regression, competitive inhibition fit, Nup62 substrate, read-out: Inhibition constant (Ki)) turned out to be 0.4 µM.

For the origin of these results see US20170166558A1, “O-GLCNAC TRANSFERASE (OGT) INHIBITORS AND USES THEREOF” (President and Fellows of Harvard College, priority 2014, published 2017).
